According to patent US20240376163A1, “PEPTIDE FOR INHIBITING CALCINEURIN AND USE THEREOF” (Seoul National University R&DB Foundation, priority 2023, published 2024):

Test system: Jurkat T cells
Assay: mRNA sequencing of activated Jurkat T cells
Format: cell-based, human

For C=CC[C@@H]1/C=C(\C)C[C@H](C)C[C@H](OC)[C@H]2O[C@@](O)(C(=O)C(=O)N3CCCC[C@H]3C(=O)O[C@H](/C(C)=C/[C@@H]3CC[C@@H](O)[C@H](OC)C3)[C@H](C)[C@@H](O)CC1=O)[C@H](C)C[C@@H]2OC [FK506, Tacrolimus, reference compound], the “CRIM1 FPKM” value (P + I) was 0.305 FPKM, the “CRTAM FPKM” value (P + I) was 3.325 FPKM and the “CSF1 FPKM” value (P + I) was 1.706 FPKM. For the same compound, the “CSF2 FPKM” value (P + I) was 0 FPKM, the “CST7 FPKM” value (P + I) was 2.338 FPKM and the “CXCL8 FPKM” value (P + I) was 0.937 FPKM. For the same compound, the “CXCR3 FPKM” value (P + I) was 0.503 FPKM, the “DSTYK FPKM” value (P + I) was 3.501 FPKM and the “FBXO34 FPKM” value (P + I) was 14.612 FPKM. The “FMNL2 FPKM” value (P + I) was 2.726 FPKM, the “FOSL2 FPKM” value (P + I) was 2.204 FPKM and the “FOXO1 FPKM” value (P + I) was 1.77 FPKM. For the same compound, the “FXYD5 FPKM” value (P + I) was 41.346 FPKM, the “FYN FPKM” value (P + I) was 16.523 FPKM and the “GFOD1 FPKM” value (P + I) was 4.187 FPKM. The “GRK5 FPKM” value (P + I) was 8.481 FPKM, the “GTDC1 FPKM” value (P + I) was 4.629 FPKM and the “IL2 FPKM” value (P + I) was 0.287 FPKM. For the same compound, the “IL3 FPKM” value (P + I) was 0.062 FPKM, the “IL21R FPKM” value (P + I) was 2.244 FPKM and the “IL21R-AS1 FPKM” value (P + I) was 1.927 FPKM. For the same compound, the “IQCJ-SCHIP1 FPKM” value (P + I) was 1.657 FPKM, the “IRF4 FPKM” value (P + I) was 0.423 FPKM and the “IRF8 FPKM” value (P + I) was 1.19 FPKM. For the same compound, the “ISM1 FPKM” value (P + I) was 0.726 FPKM, the “JAK2 FPKM” value (P + I) was 5.248 FPKM and the “KCNK1 FPKM” value (P + I) was 10.967 FPKM. The “KCNK5 FPKM” value (P + I) was 3.906 FPKM, the “LAMP3 FPKM” value (P + I) was 6.412 FPKM and the “LAX1 FPKM” value (P + I) was 8.052 FPKM. For the same compound, the “LIF FPKM” value (P + I) was 0.143 FPKM, the “LOC729603 FPKM” value (P + I) was 2.179 FPKM and the “LRRC8B FPKM” value (P + I) was 3.555 FPKM. The “LTBP4 FPKM” value (P + I) was 8.427 FPKM, the “MAP2K3 FPKM” value (P + I) was 41.815 FPKM and the “MIR6775 FPKM” value (P + I) was 19.643 FPKM. For the same compound, the “MIR6821 FPKM” value (P + I) was 13.626 FPKM, the “MYO1D FPKM” value (P + I) was 4.59 FPKM and the “NDFIP1 FPKM” value (P + I) was 22.485 FPKM. For the same compound, the “NFATC1 FPKM” value (P + I) was 3.793 FPKM, the “NPDC1 FPKM” value (P + I) was 4.328 FPKM and the “NR4A2 FPKM” value (P + I) was 0.04 FPKM. The “NTRK1 FPKM” value (P + I) was 0.836 FPKM, the “PAM FPKM” value (P + I) was 1.483 FPKM and the “PDGFA FPKM” value (P + I) was 3.25 FPKM. For the same compound, the “PELI1 FPKM” value (P + I) was 8.175 FPKM, the “PHACTR2 FPKM” value (P + I) was 2.927 FPKM and the “PHEX FPKM” value (P + I) was 0.213 FPKM. For the same compound, the “PIM3 FPKM” value (P + I) was 42.827 FPKM, the “PKIA FPKM” value (P + I) was 13.962 FPKM and the “PLK3 FPKM” value (P + I) was 5.257 FPKM. For the same compound, the “PLS3 FPKM” value (P + I) was 0.052 FPKM, the “POU2AF1 FPKM” value (P + I) was 2.274 FPKM and the “PPIF FPKM” value (P + I) was 50.291 FPKM. The “PTPN6 FPKM” value (P + I) was 20.906 FPKM, the “PTPN22 FPKM” value (P + I) was 6.37 FPKM and the “RDH10 FPKM” value (P + I) was 5.856 FPKM. The “REL FPKM” value (P + I) was 4.749 FPKM, the “RGS16 FPKM” value (P + I) was 1.172 FPKM and the “SCHIP1 FPKM” value (P + I) was 1.535 FPKM. For the same compound, the “SERPINB2 FPKM” value (P + I) was 2.905 FPKM, the “SHC4 FPKM” value (P + I) was 0.663 FPKM and the “SLAMF1 FPKM” value (P + I) was 0.217 FPKM. For the same compound, the “SLC35E4 FPKM” value (P + I) was 0.952 FPKM, the “SORBS1 FPKM” value (P + I) was 0.4 FPKM and the “SPRY1 FPKM” value (P + I) was 4.074 FPKM. For the same compound, the “STAT5A FPKM” value (P + I) was 3.347 FPKM, the “TAGAP FPKM” value (P + I) was 4.352 FPKM and the “TBC1D4 FPKM” value (P + I) was 12.549 FPKM. For the same compound, the “TBC1D20 FPKM” value (P + I) was 17.7 FPKM, the “TDRD9 FPKM” value (P + I) was 1.245 FPKM and the “TIAM2 FPKM” value (P + I) was 0.27 FPKM. For the same compound, the “TM4SF1 FPKM” value (P + I) was 0.439 FPKM, the “TNFRSF4 FPKM” value (P + I) was 2.933 FPKM and the “TNFSF9 FPKM” value (P + I) was 2.568 FPKM. For the same compound, the “TNFSF14 FPKM” value (P + I) was 1.023 FPKM, the “TNS3 FPKM” value (P + I) was 0.678 FPKM and the “VAMP1 FPKM” value (P + I) was 14.793 FPKM. For the same compound, the “XCL1 FPKM” value (P + I) was 0 FPKM, the “XCL2 FPKM” value (P + I) was 0 FPKM and the “ZNF704 FPKM” value (P + I) was 0.014 FPKM. The “ZNF827 FPKM” value (P + I) was 1.521 FPKM, the “ABCB10 FPKM” value (P+I) was 10.164 FPKM and the “ACTG1 FPKM” value (P+I) was 1002.221 FPKM. For the same compound, the “ADAM19 FPKM” value (P+I) was 5.532 FPKM, the “ADD3 FPKM” value (P+I) was 13.6 FPKM and the “ADORA2B FPKM” value (P+I) was 8.219 FPKM. For the same compound, the “AGO2 FPKM” value (P+I) was 13.242 FPKM, the “AIM1 FPKM” value (P+I) was 37.047 FPKM and the “APOBEC3A_B FPKM” value (P+I) was 10.242 FPKM. For the same compound, the “APOBEC3B FPKM” value (P+I) was 41.16 FPKM, the “APOBEC3C FPKM” value (P+I) was 16.851 FPKM and the “APOBEC3D FPKM” value (P+I) was 10.187 FPKM. For the same compound, the “APOL2 FPKM” value (P+I) was 89.267 FPKM, the “APOL6 FPKM” value (P+I) was 46.937 FPKM and the “AQP3 FPKM” value (P+I) was 66.037 FPKM. The “ARAP2 FPKM” value (P+I) was 15.321 FPKM, the “ARC FPKM” value (P+I) was 9.966 FPKM and the “ARHGAP23 FPKM” value (P+I) was 2.576 FPKM.
